Source: US20170334899A1, “AMINO-SUBSTITUTED ISOTHIAZOLES” (Bayer Pharma Aktiengesellschaft, priority 2014, published 2017)

Experiments:
CDK2/CycE = molecular target: T1, CDK2/CycE (Homo sapiens, UniProt P24941); test: CDK2/CycE kinase assay (TR-FRET); type: biochemical; conditions: avg, read-out: CDK2 avg (IC50 [mol/l])
T1 construct: GST; purchased ProQinase GmbH (Freiburg, Germany); host or cells: insect cells (Sf9)
In short: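 GST-tagged human CDK2 and CycE from Sf9 cells, preincubated 15 min with compound, then 25 min at 22° C. with 10 μM ATP and 0.75 μM biotinylated Rb-derived peptide (final). Phospho-substrate read by TR-FRET (anti-pRB pSer807/pSer811, Eu anti-mouse IgG, streptavidin-XL665), 665/620 nm ratio, normalised to no-inhibitor and no-enzyme controls.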

[1] = tested on: human cervical tumor cell line HeLa (ATCC CCL-2); test: SAC-Formation - Nocodazole-Induced Assay; type: cell-based; conditions: Homo sapiens, HeLa, 24 h, HeLa cells, nocodazole 0.1 μg/ml together with test compound, decrease of mitotic cells (phospho-histone H3 Ser10)
In short: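 HeLa cells, plated overnight, were treated 24 h at 37 °C with nocodazole (0.1 μg/ml final) plus test compound (0.005–20 μM, 0.5% DMSO) added at the same time. After fixation, anti-phospho-histone H3 Ser10 and Hoechst staining gave the mitotic cell fraction by imaging. Values came from four-parameter Hill fits.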

In the case of `Cc1nsc(Nc2cnc(C(F)(F)F)cn2)c1C(=O)Nc1ccc(F)c(OC[C@@H]2CCCN(CC(F)(F)F)C2)c1` [Example 342, N-(4-fluoro-3-{[(3R)-1-(2,2,2-trifluoroethyl)piperidin-3-yl]methoxy}phenyl)-3-methyl-5-{[5-(trifluoromethyl)pyrazin-2-yl]amino}-1,2-thiazole-4-carboxamide], the IC50 (CDK2/CycE) is reported as > 20000 nM and the IC50 [1] is reported as 72 nM.
With `Cc1nsc(Nc2cncc(C(F)(F)F)n2)c1C(=O)Nc1ccc(F)c(OC2CCN(CCC(F)(F)F)CC2)c1` [Example 343, N-(4-fluoro-3-{[1-(3,3,3-trifluoropropyl)piperidin-4-yl]oxy}phenyl)-3-methyl-5-{[6-(trifluoromethyl)pyrazin-2-yl]amino}-1,2-thiazole-4-carboxamide] the IC50 (CDK2/CycE) was ≥ 20000 nM and the IC50 [1] was 210 nM.
`Cc1nsc(Nc2cnc(C(F)(F)F)cn2)c1C(=O)Nc1ccc(OCC2CCN(CCF)CC2)nc1` [Example 344, N-(6-{[1-(2-fluoroethyl)piperidin-4-yl]methoxy}pyridin-3-yl)-3-methyl-5-{[5-(trifluoromethyl)pyrazin-2-yl]amino}-1,2-thiazole-4-carboxamide] was tested, and the IC50 (CDK2/CycE) was ≥ 20000 nM and the IC50 [1] was 290 nM.
For `Cc1nsc(Nc2cnc(C(F)(F)F)cn2)c1C(=O)Nc1ccc(OCC2CCN(CC(F)F)CC2)nc1` [Example 345, N-(6-{[1-(2,2-difluoroethyl)piperidin-4-yl]methoxy}pyridin-3-yl)-3-methyl-5-{[5-(trifluoromethyl)pyrazin-2-yl]amino}-1,2-thiazole-4-carboxamide], the IC50 (CDK2/CycE) was ≥ 20000 nM and the IC50 [1] was 28 nM.
`Cc1nsc(Nc2cnc(C(F)(F)F)cn2)c1C(=O)Nc1ccc(OCC2CCN(CC(F)(F)F)CC2)nc1` [Example 346, 3-methyl-N-(6-{[1-(2,2,2-trifluoroethyl)piperidin-4-yl]methoxy}pyridin-3-yl)-5-{[5-(trifluoromethyl)pyrazin-2-yl]amino}-1,2-thiazole-4-carboxamide] was tested, and the IC50 (CDK2/CycE) was ≥ 20000 nM and the IC50 [1] was 33 nM.
With `Cc1nsc(Nc2cnc(C(F)(F)F)cn2)c1C(=O)Nc1ccc(OCC2CCN(CCC(F)(F)F)CC2)nc1` [Example 347, 3-methyl-5-{[5-(trifluoromethyl)pyrazin-2-yl]amino}-N-(6-{[1-(3,3,3-trifluoropropyl)piperidin-4-yl]methoxy}pyridin-3-yl)-1,2-thiazole-4-carboxamide] the IC50 (CDK2/CycE) was ≥ 20000 nM and the IC50 [1] was 40 nM.
With `Cc1nsc(Nc2cnc(C(F)(F)F)cn2)c1C(=O)Nc1ccc(OCCN(C)CCF)nc1` [Example 348, N-(6-{2-[(2-fluoroethyl)(methyl)amino]ethoxy}pyridin-3-yl)-3-methyl-5-{[5-(trifluoromethyl)pyrazin-2-yl]amino}-1,2-thiazole-4-carboxamide] the IC50 (CDK2/CycE) was ≥ 20000 nM and the IC50 [1] was 310 nM.
`Cc1nsc(Nc2cnc(C(F)(F)F)cn2)c1C(=O)Nc1ccc(OCCN(C)CC(F)F)nc1` [Example 349, N-(6-{2-[(2,2-difluoroethyl)(methyl)amino]ethoxy}pyridin-3-yl)-3-methyl-5-{[5-(trifluoromethyl)pyrazin-2-yl]amino}-1,2-thiazole-4-carboxamide] was tested, and the IC50 (CDK2/CycE) was ≥ 20000 nM and the IC50 [1] was 81 nM.
`Cc1nsc(Nc2cnc(C(F)(F)F)cn2)c1C(=O)Nc1ccc(OCCN(C)CC(F)(F)F)nc1` [Example 350, 3-methyl-N-(6-{2-[methyl(2,2,2-trifluoroethyl)amino]ethoxy}pyridin-3-yl)-5-{[5-(trifluoromethyl)pyrazin-2-yl]amino}-1,2-thiazole-4-carboxamide] was tested, and the IC50 (CDK2/CycE) was ≥ 20000 nM and the IC50 [1] was 99 nM.
`Cc1nsc(Nc2cnc(C(F)(F)F)cn2)c1C(=O)Nc1ccc(OCCN(C)CCC(F)(F)F)nc1` [Example 351, 3-methyl-N-(6-{2-[methyl(3,3,3-trifluoropropyl)amino]ethoxy}pyridin-3-yl)-5-{[5-(trifluoromethyl)pyrazin-2-yl]amino}-1,2-thiazole-4-carboxamide] was tested, and the IC50 (CDK2/CycE) was ≥ 20000 nM and the IC50 [1] was 98 nM.
With `Cc1nsc(Nc2cnc(C(F)(F)F)cn2)c1C(=O)Nc1ccc(OCCCN(C)CCF)nc1` [Example 352, N-(6-{3-[(2-fluoroethyl)(methyl)amino]propoxy}pyridin-3-yl)-3-methyl-5-{[5-(trifluoromethyl)pyrazin-2-yl]amino}-1,2-thiazole-4-carboxamide] the IC50 (CDK2/CycE) was ≥ 20000 nM and the IC50 [1] was 470 nM.
In the case of `Cc1nsc(Nc2cnc(C(F)(F)F)cn2)c1C(=O)Nc1ccc(OCCCN(C)CC(F)F)nc1` [Example 353, N-(6-{3-[(2,2-difluoroethyl)(methyl)amino]propoxy}pyridin-3-yl)-3-methyl-5-{[5-(trifluoromethyl)pyrazin-2-yl]amino}-1,2-thiazole-4-carboxamide], the IC50 (CDK2/CycE) is reported as ≥ 20000 nM and the IC50 [1] is reported as 96 nM.
`Cc1nsc(Nc2cnc(C(F)(F)F)cn2)c1C(=O)Nc1ccc(OCCCN(C)CC(F)(F)F)nc1` [Example 354, 3-methyl-N-(6-{3-[methyl(2,2,2-trifluoroethyl)amino]propoxy}pyridin-3-yl)-5-{[5-(trifluoromethyl)pyrazin-2-yl]amino}-1,2-thiazole-4-carboxamide] was tested, and the IC50 (CDK2/CycE) was ≥ 20000 nM and the IC50 [1] was 110 nM.
In the case of `Cc1nsc(Nc2cnc(C(F)(F)F)cn2)c1C(=O)Nc1ccc(OCCCN(C)CCC(F)(F)F)nc1` [Example 355, 3-methyl-N-(6-{3-[methyl(3,3,3-trifluoropropyl)amino]propoxy}pyridin-3-yl)-5-{[5-(trifluoromethyl)pyrazin-2-yl]amino}-1,2-thiazole-4-carboxamide], the IC50 (CDK2/CycE) is reported as ≥ 20000 nM and the IC50 [1] is reported as 150 nM.
In the case of `Cc1nsc(Nc2cnc(C(F)(F)F)cn2)c1C(=O)Nc1ccc(CCC2CCN(CC(F)F)CC2)nc1` [Example 356, N-(6-{2-[1-(2,2-difluoroethyl)piperidin-4-yl]ethyl}pyridin-3-yl)-3-methyl-5-{[5-(trifluoromethyl)pyrazin-2-yl]amino}-1,2-thiazole-4-carboxamide], the IC50 (CDK2/CycE) is reported as > 20000 nM and the IC50 [1] is reported as 50 nM.
For `Cc1nsc(Nc2cnc(C(F)(F)F)cn2)c1C(=O)Nc1ccc(C2CCN(CC(F)F)CC2)nc1` [Example 357, N-{6-[1-(2,2-difluoroethyl)piperidin-4 yl]pyridin-3-yl}-3-methyl-5-{[5-(trifluoromethyl)pyrazin-2-yl]amino}-1,2-thiazole-4-carboxamide], the IC50 (CDK2/CycE) was > 20000 nM and the IC50 [1] was 44 nM.
In the case of `Cc1nsc(Nc2cnc(C(F)(F)F)cn2)c1C(=O)Nc1ccc(C2CCN(CC(F)(F)F)CC2)nc1` [Example 358, 3-methyl-N-{6-[1-(2,2,2-trifluoroethyl)piperidin-4-yl]pyridin-3-yl}-5-{[5-(trifluoromethyl)pyrazin-2-yl]amino}-1,2-thiazole-4-carboxamide], the IC50 (CDK2/CycE) is reported as > 20000 nM and the IC50 [1] is reported as 30 nM.
With `Cc1nsc(Nc2cnc(C(F)(F)F)cn2)c1C(=O)Nc1ccc(N2CCN(CC(F)F)CC2)nc1` [Example 359, N-{6-[4-(2,2-difluoroethyl)piperazin-1-yl]pyridin-3-yl}-3-methyl-5-{[5-(trifluoromethyl)pyrazin-2-yl]amino}-1,2-thiazole-4-carboxamide] the IC50 (CDK2/CycE) was > 20000 nM and the IC50 [1] was 29 nM.
For `Cc1nsc(Nc2cnc(C(F)(F)F)cn2)c1C(=O)Nc1ccc(N2CCN(CC(F)(F)F)CC2)nc1` [Example 360, 3-methyl-N-{6-[4-(2,2,2-trifluoroethyl)piperazin-1-yl]pyridin-3-yl}-5-{[5-(trifluoromethyl)pyrazin-2-yl]amino}-1,2-thiazole-4-carboxamide], the IC50 (CDK2/CycE) was > 20000 nM and the IC50 [1] was 36 nM.
In the case of `Cc1nsc(Nc2cnc(C(F)(F)F)cn2)c1C(=O)Nc1ccc(N2CCN(CCC(F)(F)F)CC2)nc1` [Example 361, 3-methyl-5-{[5-(trifluoromethyl)pyrazin-2-yl]amino}-N-{6-[4-(3,3,3-trifluoropropyl)piperazin-1-yl]pyridin-3-yl}-1,2-thiazole-4-carboxamide], the IC50 (CDK2/CycE) is reported as > 20000 nM and the IC50 [1] is reported as 68 nM.
With `Cc1nsc(Nc2cnc(C(F)(F)F)cn2)c1C(=O)Nc1ccc(O[C@H]2CCN(CC(F)F)C[C@@H]2F)nc1` [Example 362] the IC50 (CDK2/CycE) was > 20000 nM and the IC50 [1] was 2.3 nM.
In the case of `Cc1nsc(Nc2cnc(C(F)(F)F)cn2)c1C(=O)Nc1ccc(O[C@H]2CCN(CC(F)(F)F)C[C@@H]2F)nc1` [Example 363, N-(6-{[(3S,4S)-3-fluoro-1-(2,2,2-trifluoroethyl)piperidin-4-yl]oxy}pyridin-3-yl)-3-methyl-5-{[5-(trifluoromethyl)pyrazin-2-yl]amino}-1,2-thiazole-4-carboxamide], the IC50 (CDK2/CycE) is reported as > 20000 nM and the IC50 [1] is reported as 110 nM.
For `Cc1nsc(Nc2cnc(C(F)(F)F)cn2)c1C(=O)Nc1ccc(O[C@H]2CCN(CCC(F)(F)F)C[C@@H]2F)nc1` [Example 364, N-(6-{[(3S,4S)-3-fluoro-1-(3,3,3-trifluoropropyl)piperidin-4-yl]oxy}pyridin-3-yl)-3-methyl-5-{[5-(trifluoromethyl)pyrazin-2-yl]amino}-1,2-thiazole-4-carboxamide], the IC50 (CDK2/CycE) was > 20000 nM and the IC50 [1] was 12 nM.
`CCN1CC[C@H](Oc2ccc(NC(=O)c3c(C)nsc3Nc3cnc(C(F)(F)F)cn3)cn2)[C@@H](F)C1` [Example 365, N-(6-{[(3S,4S)-1-ethyl-3-fluoropiperidin-4-yl]oxy}pyridin-3-yl)-3-methyl-5-{[5-(trifluoromethyl)pyrazin-2-yl]amino}-1,2-thiazole-4-carboxamide] was tested, and the IC50 (CDK2/CycE) was > 20000 nM and the IC50 [1] was 34 nM.
In the case of `Cc1nsc(Nc2cnc(C(F)(F)F)cn2)c1C(=O)Nc1ccc(O[C@@H]2CCN(CC(F)F)C[C@H]2F)nc1` [Example 366, N-(6-{[(3R,4R)-1-(2,2-difluoroethyl)-3-fluoropiperidin-4-yl]oxy}pyridin-3-yl)-3-methyl-5-{[5-(trifluoromethyl)pyrazin-2-yl]amino}-1,2-thiazole-4-carboxamide], the IC50 (CDK2/CycE) is reported as > 20000 nM and the IC50 [1] is reported as 58 nM.
